Experimental findings from the NIST ThermoML archive (doi:10.1016/j.tca.2004.12.015) are described below.

The conditions of the data set: Adiabatic calorimetry.

Numbers after ± are expanded uncertainties.

For the molecule `N#CCCNc1ccccc1` [3-anilinopropanenitrile], the Triple point temperature reads like this: (Crystal 1) 323.5 ± 0.1 K; (Crystal 2) 310.63 ± 0.05 K.
